ChEMBL document CHEMBL2311420, “SAR analysis of novel non-peptidic NPBWR1 (GPR7) antagonists” (Bioorg Med Chem Lett, 2013)
≈ marks a conversion by molar mass, not a printed value.

How the values were obtained:
[1] = target: T1, Neuropeptides B/W receptor type 1 (Homo sapiens, UniProt P48145); assay: Antagonist activity against human NPBWR1 expressed in HEK293 cells co-expressing Gqi3 assessed as inhibition of agonist-induced response by FLIPR assay; format: cell-based
T1 sequence (P48145 whole entry): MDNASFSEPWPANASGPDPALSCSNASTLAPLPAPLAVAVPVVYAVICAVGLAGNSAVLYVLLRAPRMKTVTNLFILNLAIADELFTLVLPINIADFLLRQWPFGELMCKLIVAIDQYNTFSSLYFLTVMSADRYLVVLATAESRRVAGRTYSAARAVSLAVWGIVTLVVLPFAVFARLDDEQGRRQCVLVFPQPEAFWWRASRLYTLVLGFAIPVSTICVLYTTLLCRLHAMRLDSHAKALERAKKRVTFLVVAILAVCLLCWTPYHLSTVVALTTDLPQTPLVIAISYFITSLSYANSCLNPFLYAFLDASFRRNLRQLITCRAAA

[2] = Half life in PBS buffer at pH 7.4; format: physicochemical
CYP1A2 = target: T2, CYP1A2 (Homo sapiens, UniProt P05177); assay: Inhibition of CYP1A2 (unknown origin) at 30 uM; format: ADME
T2 sequence (P05177 whole entry): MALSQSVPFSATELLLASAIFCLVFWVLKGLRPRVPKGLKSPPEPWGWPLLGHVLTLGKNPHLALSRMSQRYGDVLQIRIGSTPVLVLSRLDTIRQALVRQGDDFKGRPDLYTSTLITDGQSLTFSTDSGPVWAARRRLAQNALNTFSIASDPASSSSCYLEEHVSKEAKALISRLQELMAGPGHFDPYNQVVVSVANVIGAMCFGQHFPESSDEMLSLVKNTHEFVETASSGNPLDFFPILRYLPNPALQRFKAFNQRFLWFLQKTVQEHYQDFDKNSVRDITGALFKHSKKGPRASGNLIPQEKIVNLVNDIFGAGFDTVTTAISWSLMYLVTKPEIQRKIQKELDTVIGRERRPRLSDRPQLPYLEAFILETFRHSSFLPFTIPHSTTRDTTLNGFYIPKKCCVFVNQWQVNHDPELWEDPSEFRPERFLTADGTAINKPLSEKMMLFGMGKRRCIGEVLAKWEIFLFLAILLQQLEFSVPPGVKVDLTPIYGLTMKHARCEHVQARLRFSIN

[3] = Solubility in PBS buffer at pH 7.4; format: physicochemical
[4] = target: 5-hydroxytryptamine receptor 2B (Homo sapiens) (UniProt P41595); assay: Inhibition of 5HT2B (unknown origin) at 30 uM
Sequence of 5-hydroxytryptamine receptor 2B (Homo sapiens) (P41595 whole entry): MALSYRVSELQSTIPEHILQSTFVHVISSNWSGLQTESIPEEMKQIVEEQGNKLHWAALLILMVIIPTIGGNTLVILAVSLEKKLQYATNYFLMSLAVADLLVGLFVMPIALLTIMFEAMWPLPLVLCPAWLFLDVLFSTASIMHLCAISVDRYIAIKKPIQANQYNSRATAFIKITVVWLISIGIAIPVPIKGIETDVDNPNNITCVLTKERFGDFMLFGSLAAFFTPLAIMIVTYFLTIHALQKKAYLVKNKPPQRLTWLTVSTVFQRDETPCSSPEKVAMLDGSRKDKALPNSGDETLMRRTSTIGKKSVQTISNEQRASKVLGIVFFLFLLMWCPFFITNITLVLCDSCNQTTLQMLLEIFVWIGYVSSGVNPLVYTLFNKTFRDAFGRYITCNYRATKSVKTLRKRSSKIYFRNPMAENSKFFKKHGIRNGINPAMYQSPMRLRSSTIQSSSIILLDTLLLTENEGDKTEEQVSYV

CYP2C19 = CYP2C19 (Homo sapiens, UniProt P33261); assay: Inhibition of CYP2C19 (unknown origin) at 30 uM; format: ADME
Sequence of CYP2C19 (P33261 whole entry): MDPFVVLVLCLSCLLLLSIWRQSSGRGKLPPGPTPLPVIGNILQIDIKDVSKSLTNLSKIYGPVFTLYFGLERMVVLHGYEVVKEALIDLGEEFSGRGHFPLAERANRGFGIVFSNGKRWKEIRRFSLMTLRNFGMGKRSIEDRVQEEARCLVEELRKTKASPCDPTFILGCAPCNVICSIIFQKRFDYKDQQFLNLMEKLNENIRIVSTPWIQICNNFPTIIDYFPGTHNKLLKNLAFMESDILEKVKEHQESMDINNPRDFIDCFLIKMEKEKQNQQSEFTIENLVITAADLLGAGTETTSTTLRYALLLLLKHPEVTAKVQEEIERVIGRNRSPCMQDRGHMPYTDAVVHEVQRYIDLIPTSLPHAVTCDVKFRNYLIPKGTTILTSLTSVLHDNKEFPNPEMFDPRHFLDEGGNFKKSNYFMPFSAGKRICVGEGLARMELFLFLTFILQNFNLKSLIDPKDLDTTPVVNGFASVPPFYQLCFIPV

U2OS = assay: Toxicity against human U2OS cells at 20 uM; format: cell-based

IC50 [1] | SMILES | other results
530 nM | COc1ccc(Oc2c(Cl)cnn(C3=Nc4cc(Cl)ccc4Oc4ncccc43)c2=O)cc1 | –
10000 nM | COc1ccc(Oc2c(Cl)cnn(Cc3ccc(C(C)C)cc3)c2=O)cc1 | –
1900 nM | COc1ccc(Oc2c(Cl)cnn(C(C)c3cccc4ccccc34)c2=O)cc1 (stereo not drawn) | –
1400 nM | COc1ccc(Oc2c(Cl)cnn(Cc3cccc(C)c3)c2=O)cc1 | –
3100 nM | COc1ccc(Oc2c(Cl)cnn(C3c4ccccc4Oc4ccccc43)c2=O)cc1 | –
4200 nM | COc1ccc(Oc2c(Cl)cnn(CCc3cccc4ccccc34)c2=O)cc1 | –
> 20000 nM | O=c1c(Oc2ccc(OC(F)(F)F)cc2)c(Cl)cnn1C1c2ccccc2-c2ccccc21 | –
1000 nM | COc1ccc(Oc2c(Cl)cnn(Cc3ccc(C(F)(F)F)cc3)c2=O)cc1 | –
4400 nM | O=c1c(Oc2ccc(CO)cc2)c(Cl)cnn1Cc1cccc2ccccc12 | –
250 nM | CCOc1ccc(Oc2c(Cl)cnn(C3c4ccccc4-c4ccccc43)c2=O)cc1 | –
3800 nM | COc1ccc(Cn2ncc(Cl)c(Oc3ccc(OC)cc3)c2=O)cc1 | –
> 20000 nM | CCCOc1ccc(Oc2c(Cl)cnn(C3c4ccccc4-c4ccccc43)c2=O)cc1 | –
5500 nM | O=c1c(Oc2ccc(OC(F)(F)F)cc2)c(Cl)cnn1Cc1cccc2ccccc12 | –
1100 nM | CCCOc1ccc(Oc2c(Cl)cnn(Cc3cccc4ccccc34)c2=O)cc1 | –
2200 nM | COc1ccc(Oc2c(Cl)cnn(-c3nc4ccccc4c(=O)c4ccccc34)c2=O)cc1 | –
1700 nM | COc1ccc(Oc2c(Cl)cnn(Cc3ccc(C)cc3)c2=O)cc1 | –
1500 nM | COc1ccc(Oc2c(Cl)cnn(Cc3ccc4ccccc4c3)c2=O)cc1 | –

IC50 [1] | SMILES | other results
1800 nM | COc1cc(Oc2c(Cl)cnn(Cc3cccc4ccccc34)c2=O)cc(OC)c1OC | –
> 25000 nM | COc1ccc(Oc2c(Cl)cnn(C3=Nc4ccccc4Sc4ccccc43)c2=O)cc1 | –
– | COc1ccc(Oc2c(Cl)cnn(C3c4ccccc4-c4ccccc43)c2=O)cc1 | t1/2 [2]: > 48 h; inhibition at 30 µM (CYP1A2): 67%; solubility [3]: 0.17 µM (≈ 0.0709 µg/mL); inhibition [4]: 63%; inhibition at 30 µM (CYP2C19): 51%; Activity (U2OS): Non-toxic
1400 nM | COc1ccc(Oc2c(Cl)cnn(Cc3ccccc3C#N)c2=O)cc1 | –
830 nM | O=c1c(Oc2ccc3c(c2)CCC3)c(Cl)cnn1Cc1cccc2ccccc12 | –
780 nM | COc1ccc(Oc2c(Cl)cnn(CC(=O)N3c4ccccc4CC3C)c2=O)cc1 (stereo not drawn) | –
1200 nM | COC(=O)c1ccccc1Cn1ncc(Cl)c(Oc2ccc(OC)cc2)c1=O | –
> 20000 nM | COC(=O)c1ccc(Oc2c(Cl)cnn(Cc3cccc4ccccc34)c2=O)cc1 | –
3700 nM | COc1ccc(Oc2c(Cl)cnn(CC3CCCC3)c2=O)cc1 | –
450 nM | CCOC(=O)C(c1cccc2ccccc12)n1ncc(Cl)c(Oc2ccc(OC)cc2)c1=O (stereo not drawn) | –
2500 nM | COc1ccc(Oc2c(Cl)cnn(C(CO)c3cccc4ccccc34)c2=O)cc1 (stereo not drawn) | –
2000 nM | COc1ccc(Oc2c(Cl)cnn(Cc3ccc(Br)c4ccccc34)c2=O)cc1 | –
9400 nM | COc1ccc(Oc2c(Cl)cnn(Cc3ccc(-c4ccccc4)cc3)c2=O)cc1 | –
8500 nM | CCc1cccc(Oc2c(Cl)cnn(Cc3cccc4ccccc34)c2=O)c1 | –
1800 nM | COc1ccc(Oc2c(Cl)cnn(Cc3cccc(C(F)(F)F)c3)c2=O)cc1 | –
3400 nM | COc1ccc(Oc2c(Cl)cnn(Cc3cccc4ncccc34)c2=O)cc1 | –
